Results published in patent US20120058198A1, “METHODS FOR TREATING AND PREVENTING PNEUMONIA AND VENTILATOR-ASSOCIATED TRACHEOBRONCHITIS” (PULMATRIX, INC., priority 2009, published 2012).

Tests used:
[1] = system: Serotype 3 Streptococcus pneumoniae; assay: Mouse S. pneumoniae infection model, nebulized calcium:sodium formulations 2 hours before infection; assay type: in vivo; settings: ampicillin synergy study; nebulized 2 h before infection; ~0.72 mg Ca/kg, ampicillin ~3 mg/kg
Protocol: Unless otherwise stated, exposure times were 3 minutes in duration. […] CFU were enumerated the following day.

bacteria = assay: Pass through assay, calcium chloride dose dependence (bacterium not named); assay type: cell-based; settings: amount delivered to mimetic, between the […] and […] solutions; from other analyses
Protocol: In these studies, the number of exposures via nebulization was different, making direct comparisons difficult. […] In this study, a single dose of each formulation was delivered to the apical surface of sodium alginate mimetic and bacteria were added immediately after exposure. […] In contrast, the 0.12M and 0.38M treatments had no effect.
All of the formulations tested above were formulated in isotonic saline. Thus, the inhibitory effects seen could be caused by the dual action of sodium and calcium ions in concert or alternatively, the effect could be driven entirely by calcium. To differentiate between these hypotheses, we tested additional calcium formulations based in water rather than saline.

SMILES	reduction in lung bacterial titers relative to saline control [1]	critical concentration of calcium needed for the inhibition of bacteria (bacteria)
CC1(C)S[C@@H]2[C@H](NC(=O)[C@H](N)c3ccccc3)C(=O)N2[C@H]1C(=O)O [ampicillin]	33 fold	
[Ca+2].[Cl-].[Cl-] [calcium chloride]		3-4 μg of calcium per cm^2
